Assay results reported in patent US20230011652A1, “COMPOUNDS AND COMPOSITIONS FOR TREATING CONDITIONS ASSOCIATED WITH NLRP ACTIVITY” (Novartis AG, priority 2018, published 2023).
pIC50: −log10 of the molar value.

Each compound was assayed on IL-1β production in PMA-differentiated THP-1 cells (assay: hTHP-1 assay containing 10% fetal bovine serum (IL-1β production, gramicidin stimulation)). Conditions: Homo sapiens, Table 4, average, read-out: hTHP-1 IC50 in 10% FBS (Average IC50 of compounds in hTHP-1 assay).
Type: cell-based
Experimental: (§1) 1.1 Cell Culture • 1) Culture THP-1 cells in the complete RPMI-1640 medium with 10% FBS at 37° C., 5% CO2. • 2) Passage the cells every 3 days by inoculating 3×10^5 cells per ml.
(§2) 1.2 Compound Preparation • Prepare the 3-fold serial dilution of the compounds with DMSO in a 384-well LDV Microplate using TECAN EVO system to generate the compound source plate with 10 concentrations. Top concentration is 30 mM.
(§3) 1.3 Cell Preparation • 1) Centrifuge THP-1 cells at 350 g for 5 min. • 2) Re-suspend cells with complete RMPI-1640 medium, and count cells. • 3) Seed cells in T225 flask, about 2.5×10^7 per flask, treat cells with 20 ng/ml PMA (final DMSO concentration<1%). • 4) Incubate overnight.
FIG. 3 depicts the layout of the plates: HC: 100 μM CRID3 (MCC950)+5 μM gramicidin LC: 5 μM Gramicidin.
1.5 IL-1β detection • 1) Homogenize the 5× diluent #5 with a vortex and add 1 volume of stock solution in 4 volumes of distilled water. • 2) Thaw 20× stock solution of anti-IL1β-Cryptate-antibody and anti-IL1β XL-antibody. Dilute these two antibodies to 1× with detection buffer #3. • 3) Pre-mix the two ready-to-use antibody solutions just prior to use. • 4) Dispense 4 ul of pre-mixed Anti-IL1β antibodies working solution into all wells. • 5) Seal the plate and incubate overnight at 4° C. • 6) Read the cell plate using EnVison and plot Readout vs. the test compound concentration to calculate the IC50.
• 1. IC50 of compounds can be calculated using the following formulas
% inhibition=100−100×[HCave−Readout/(HCave−LCave)] Formula for IC50 • 2. Fit the normalized data in a dose-response manner using XLfit, and calculate the compound concentration.

Row | Structure (SMILES) | pIC50
1 | CCn1cc(F)c(S(=O)(=O)NC(=O)Nc2c3c(cc4c2CC4)CCC3)n1 [Example 18, 1-Ethyl-4-fluoro-N-((2,4,5,6-tetrahydro-1H-cyclobuta[f]inden-3-yl)carbamoyl)-1H-pyrazole-3-sulfonamide] | 6.00 to 6.70
2 | CCn1cc(F)c(S(=O)(=O)NC(=O)Nc2c3c(cc4c2CCC4)CCC3)n1 [Example 16, 1-Ethyl-4-fluoro-N-((1,2,3,5,6,7-hexahydro-s-indacen-4-yl)carbamoyl)-1H-pyrazole-3-sulfonamide] | 6.00 to 6.70
3 | CCn1ccc(S(=O)(=O)NC(=O)Nc2c3c(cc4c2CC4)CCC3)n1 [Example 19, 1-Ethyl-N-((2,4,5,6-tetrahydro-1H-cyclobuta[f]inden-3-yl)carbamoyl)-1H-pyrazole-3-sulfonamide] | 6.00 to 6.70
4 | CCn1ccc(S(=O)(=O)NC(=O)Nc2c3c(cc4c2CCC4)CCC3)n1 [Example 17, 1-Ethyl-N-((1,2,3,5,6,7-hexahydro-s-indacen-4-yl)carbamoyl)-1H-pyrazole-3-sulfonamide] | 5.30 to 6.00

What follows are compounds tested on IL-1β production in PMA-differentiated THP-1 cells (assay: IL-1β production in PMA-differentiated THP-1 cells stimulated with gramicidin (hTHP-1 assay, 2% fetal bovine serum)). Conditions: Homo sapiens, Table 2, hTHP-1 assay containing 2% fetal bovine serum, average, read-out: hTHP-1 IC50 (Average IC50 of compounds in hTHP-1 assay).
Type: cell-based
Experimental: Procedure 1: IL-1β production in PMA-differentiated THP-1 cells stimulated with Gramicidin.
THP-1 cells were purchased from the American Type Culture Collection and sub-cultured according to instructions from the supplier. Prior to experiments, cells were cultured in complete RPMI 1640 (containing 10% heat inactivated FBS, penicillin (100 units/ml) and streptomycin (100 μg/ml)), and maintained in log phase prior to experimental setup. Prior to the experiment THP-1 were treated with PMA (Phorbol 12-myristate 13-acetate) (20 ng/ml) for 16-18 hours. Compounds were dissolved in dimethyl sulfoxide (DMSO) to generate a 30 mM stock. On the day of the experiment the media was removed and adherent cells were detached with trypsin for 5 minutes. Cells were then harvested, washed with complete RPMI 1640, spun down, resuspended in RPMI 1640 (containing 2% heat inactivated FBS, penicillin (100 units/ml) and streptomycin (100 μg/ml). The cells were plated in a 384-well plate at a density of 50,000 cells/well (final assay volume 50 μl). Compounds were first dissolved in assay medium to obtain a 5× top concentration of 500 μM. 10 step dilutions (1:3) were then undertaken in assay medium containing 1.67% DMSO. 5× compound solutions were added to the culture medium to achieve desired final concentration (e.g. 100, 33, 11, 3.7, 1.2, 0.41, 0.14, 0.046, 0.015, 0.0051, 0.0017 μM). Final DMSO concentration was at 0.37%. Cells were incubated with compounds for 1 hour and then stimulated with gramicidin (5 μM) (Enzo) for 2 hours. Plates were then centrifuged at 340 g for 5 min. Cell free supernatant (40 μL) was collected using a 96-channel PlateMaster (Gilson) and the production of IL-1β was evaluated by HTRF (cisbio). A vehicle only control and a dose titration of CRID3 (100-0.0017 μM) were run concurrently with each experiment. Data was normalized to vehicle-treated samples (equivalent to 0% inhibition) and CRID3 at 100 μM (equivalent to 100% inhibition).
as §1, §2, §3
1.4 THP-1 Stimulation • 1) Wash adherent THP-1 cells with PBS, and detach cells with 4 ml trypsin for T225 flask. • 2) Centrifuge cells at 350 g for 5 min, re-suspend cells with RPMI-1640 containing 2% FBS and count cells with trypan blue. • 3) Transfer 50 nl/well the serial dilution of test compound to 384-well plate by Echo; For the high control and first point of CRID3 (MCC950), transfer 165 nl, then backfill to make the DMSO concentration is consistent in all wells, the plate layout is as below. • 4) Seed 50k cells in 40 ul RPMI-1640 with 2% FBS per well in 384-well plate. • 5) Incubate for 1 h at 37′C, 5% CO2. • 6) Prepare 5× gramicidin, add 10 μl per well, the final concentration is 5 μM, incubate for 2 hrs at 37° C., 5% CO2. • 7) Centrifuge at 350 g for 1 min. • 8) Pipet 16 μl supernatant by apricot, and transfer into white 384 proxiplate. FIG. 3 depicts the layout of the plates: HC: 100 μM CRID3 (MCC950)+5 μM gramicidin LC: 5 μM Gramicidin.
1.5 IL-1β detection • 1) Homogenize the 5× diluent #5 with a vortex and add 1 volume of stock solution in 4 volumes of distilled water. • 2) Thaw 20× stock solution of anti-IL1β-Cryptate-antibody and anti-IL1β XL-antibody. […]

Row | Structure (SMILES) | pIC50
5 | O=C(Nc1c2c(cc3c1CCC3)CCC2)NS(=O)(=O)c1cnn2c1OC[C@H](OC(=O)Nc1c3c(cc4c1CCC4)CCC3)C2 [Compound 403, (R)-3-(N-((1,2,3,5,6,7-hexahydro-s-indacen-4-yl)carbamoyl)sulfamoyl)-6,7-dihydro-5H-pyrazolo[5,1-b][1,3]oxazin-6-yl (1,2,3,5,6,7-hexahydro-s-indacen-4-yl)carbamate] | 4.52 to 5.30
6 | O=C(Nc1c2c(cc3c1CC3)CCC2)NS(=O)(=O)c1cnn2c1OC[C@H](O)C2 [Compound 402, (R)-6-hydroxy-N-((2,4,5,6-tetrahydro-1H-cyclobuta[f]inden-3-yl)carbamoyl)-6,7-dihydro-5H-pyrazolo[5,1-b][1,3]oxazine-3-sulfonamide] | 6.70 to 7.40
7 | O=C(Nc1c2c(cc3c1CC3)CC2)NS(=O)(=O)c1cnn2c1OCCC2 [Compound 9, N-(tricyclo[6.2.0.03,6]deca-1,3(6),7-trien-2-ylcarbamoyl)-6,7-dihydro-5H-pyrazolo[5,1-b][1,3]oxazine-3-sulfonamide] | 6.70 to 7.40
8 | O=C(Nc1c2c(nc3c1CCC3)CCC2)NS(=O)(=O)c1cnn2c1OCCC2 [Compound 12, Sodium ((6,7-dihydro-5H-pyrazolo[5,1-b][1,3]oxazin-3-yl)sulfonyl)((1,2,3,5,6,7-hexahydrodicyclopenta[b,e]pyridin-8-yl)carbamoyl)amide] | 6.00 to 6.70
9 | CC1CCc2c1nc1c(c2NC(=O)NS(=O)(=O)c2cnn3c2OCCC3)CCC1 (stereo not drawn) [Compound 13, Sodium ((6,7-dihydro-5H-pyrazolo[5,1-b][1,3]oxazin-3-yl)sulfonyl)((3-methyl-1,2,3,5,6,7-hexahydrodicyclopenta[b,e]pyridin-8-yl)carbamoyl)amide] | 6.00 to 6.70
10 | O=C(Nc1c2c(cc3c1CC3)CCC2)NS(=O)(=O)c1cnn2c1OCCC2 [Compound 8, N-((2,4,5,6-tetrahydro-1H-cyclobuta[f]inden-3-yl)carbamoyl)-6,7-dihydro-5H-pyrazolo[5,1-b][1,3]oxazine-3-sulfonamide] | 6.00 to 6.70
11 | O=C(Nc1c2c(nc3c1CCC31CC1)CCC2)NS(=O)(=O)c1cnn2c1OCCC2 [Compound 15, Sodium ((6,7-dihydro-5H-pyrazolo[5,1-b][1,3]oxazin-3-yl)sulfonyl)((1′,5′,6′,7′-tetrahydro-2′H-spiro[cyclopropane-1,3′-dicyclopenta[b,e]pyridin]-8′-yl)carbamoyl)amide] | 5.30 to 6.00
12 | CN[C@H]1COc2c(S(=O)(=O)NC(=O)Nc3c4c(cc5c3CC5)CCC4)cnn2C1 [Compound 401, (R)-6-(methylamino)-N-((2,4,5,6-tetrahydro-1H-cyclobuta[f]inden-3-yl)carbamoyl)-6,7-dihydro-5H-pyrazolo[5,1-b][1,3]oxazine-3-sulfonamide] | > 8.10
13 | C[C@@H]1CCc2c1nc1c(c2NC(=O)NS(=O)(=O)c2cnn3c2OCCC3)CCC1 [Compound 404] | 6.00 to 6.70
14 | O=C(Nc1cc2c(c3c1CCC3)CCC2)NS(=O)(=O)c1cnn2c1OCCC2 [Compound 10, N-((1,2,3,6,7,8-hexahydro-as-indacen-4-yl)carbamoyl)-6,7-dihydro-5H-pyrazolo[5,1-b][1,3]oxazine-3-sulfonamide] | 5.30 to 6.00
15 | Cc1c(C2CC2)nc2c(c1NC(=O)NS(=O)(=O)c1cnn3c1OCCC3)CCC2 [Compound 16, Sodium ((2-cyclopropyl-3-methyl-6,7-dihydro-5H-cyclopenta[b]pyridin-4-yl)carbamoyl)((6,7-dihydro-5H-pyrazolo[5,1-b][1,3]oxazin-3-yl)sulfonyl)amide] | 5.30 to 6.00
16 | CC1(C)CCc2c1nc1c(c2NC(=O)NS(=O)(=O)c2cnn3c2OCCC3)CCC1 [Compound 14] | 5.30 to 6.00

Same assay, conditions: Homo sapiens, Table 3, hTHP-1 assay containing 2% fetal bovine serum, average, read-out: hTHP-1 IC50 (Average IC50 of compounds in hTHP-1 assay)

Row | Structure (SMILES) | pIC50
17 | CC(C)(O)c1coc(S(=O)(=O)NC(=O)Nc2c3c(cc4c2CC4)CCC3)c1 [Compound 301, 4-(2-Hydroxypropan-2-yl)-N-((2,4,5,6-tetrahydro-1H-cyclobuta[f]inden-3-yl)carbamoyl)furan-2-sulfonamide] | 6.70 to 7.40
18 | CC(C)n1ccc(S(=O)(=O)NC(=O)Nc2c3c(cc4c2CC4)CCC3)n1 [Compound 302, 1-Isopropyl-N-((2,4,5,6-tetrahydro-1H-cyclobuta[f]inden-3-yl)carbamoyl)-1H-pyrazole-3-sulfonamide] | 5.30 to 6.00
